# PubChem BioAssay AID1645848
# Settings: buffer; pH 7.4; 6.0 h; 150.0 µM
row,solubility kinetic [µg/mL],Compound
1,9.06,CC1=C(C(=O)Nc2ccccc2)C(c2ccc[nH]2)n2ncnc2N1 (stereo unspecified)
2,< 1,Cc1sc(NC(=O)Cc2ccc3c(c2)OCO3)nc1-c1ccc2c(c1)CCN2
3,< 1,Cc1ccc(S(=O)(=O)Nc2ccccc2C(=O)Nc2nc(-c3ccccc3)co2)cc1
4,1.22,Cc1cccc(C)c1NC(=O)c1nc(SC(C)C)ncc1Cl
5,14.9,CCOP(=O)(Cc1ccc(C(=O)Nc2ccc(Br)cc2C#N)cc1)OCC
6,11.5,Cc1cc(C)c(C(=O)Nc2cccc([S+](=O)([O-])N3CCCC3)c2)[nH]1
7,40.3,CCc1ccc(NC(=O)c2[nH]c(C)c(C(C)=O)c2C)cc1[S+](=O)([O-])Nc1ccccc1C#N
8,14,COc1ccc(-n2c(C)cc(C3=NNC(=NC4CC4)SC3)c2C)cc1
9,< 1,Cc1ccccc1C(=O)N1CCc2cc(-c3nc(NC(=O)Cc4ccc5c(c4)OCCO5)sc3C)ccc21
10,2.59,Fc1cc(F)cc(Nc2nc(-c3ccncc3)nc3ccccc23)c1
11,9.16,O=C1Nc2ccc(C(=O)c3ccco3)cc2/C1=C/c1cc(Cl)c(O)c(Cl)c1
12,33.6,CCOC(=O)Nc1cc(-c2ccc(C)c(NS(C)(=O)=O)c2)nn2c(C)nnc12
13,1.45,COc1ccc(-c2nc3c(c(SCC(=O)Nc4ccc(C(=O)O)cc4)n2)Cc2ccccc2O3)cc1
14,> 39,O=C(c1ccc2c(c1)OCO2)N1CCC(Cc2nc(-c3cnccn3)no2)CC1
15,< 1,CCn1cc(CNC(=O)c2cc(-c3ccc(C)cc3)nc3ccc(Br)cc23)c(C)n1
16,< 1,CCN1C(=O)c2ccccc2[S@](=O)c2ccc(C(=O)N[C@H](C)c3ccc(Br)cc3)cc21
17,23.8,CCOc1ccc(NC(=O)CSC2=Nc3ccccc3C3=NC(CC(=O)NCc4cccs4)C(=O)N23)cc1 (stereo unspecified)
18,6.48,CC(C)(C)OC(=O)NC1CCN(c2nc(-c3ccc(Br)cc3)cs2)CC1
19,< 1,Fc1ccc(Nc2nc(-c3ccncc3Cl)nc3ccccc23)cc1F
20,0.005,Cc1ccc(S(=O)(=O)Nc2cnccc2C(=O)Nc2nc(-c3ccccc3Cl)cs2)cc1
21,> 54,Cc1ccc(S(=O)(=O)Nc2cnccc2C(=O)Nc2ccccc2)cc1
22,< 1,COc1cccc(CNc2ccc(S(=O)(=O)Nc3ccccc3)cc2)c1O
23,> 56,COc1cc(-c2csc(N3CCC(C(N)=O)CC3)n2)cc(OC)c1OC

row,solubility kinetic [µg/mL],Compound
1,35.2,N#Cc1ccc(-c2ccc(CNc3ccc(C4CCNCC4)cc3)o2)cc1
2,28.3,CN(C)CCNC(=O)c1nc(-c2ccccc2)cc2[nH]ccc12
3,2.73,CCCNC(=O)c1ccc2c(c1)N=C(C)c1c(C)ccc(C)c1S2
4,> 45,NC(=O)C1CCN(c2nc(-c3cccc(N)c3)cs2)CC1
5,> 49,Cc1cc(-c2nnc3n2CCCCC3)c(C)n1-c1ccc(C#N)cc1
6,2.28,Cc1ccc(C(=O)[C@H]2CC[C@@H](C(=O)Nc3ccc(S(=O)(=O)Nc4nccs4)cc3)C2)cc1C
7,5.56,COc1ccc(-c2nc(N3CCOCC3)c3sc(CN(C)c4ncc(C(=O)NO)cn4)cc3n2)cn1
8,< 1,O=C1CCCC2=C1C1(CCSCC1)N=C(Nc1nc3ccccc3o1)N2
9,< 1,CCCCCN(CCC12CC3CC(CC(C3)C1)C2)C(=O)NCCCc1ccncc1
10,> 59,Cn1c(CN2CCCC2)nc2cc(NC(=O)COc3ccc(Cl)cc3)ccc21
11,> 44,Clc1ccc2ncc(-c3cccc(NC4CNC4)n3)n2c1
12,9.84,NC(=O)C1CCN(c2nnc(-c3ccc4c(c3)OCCCO4)s2)CC1
13,6.59,Brc1ccc(-c2csc(N3CCNCC3)n2)cc1
14,26.8,CCOc1ccccc1C(=O)NC1CCN(c2cc(C)cc(C)c2)C1=O (stereo unspecified)
15,> 51,Cc1ccc(-n2ncc3c(Nc4cccc(C(=O)O)c4)ncnc32)cc1
16,< 1,CC1=C(C(=O)Nc2nnc(-c3ccccc3)s2)C(c2nn(C)cc2Cl)N=C(Nc2nc3ccccc3o2)N1 (stereo unspecified)
17,< 1,Oc1c(C(Nc2nccs2)c2ccc(C(F)(F)F)cc2)ccc2cccnc12 (stereo unspecified)
18,< 1,Cc1ccc(NS(=O)(=O)c2cccc(C(=O)Nc3nc(-c4ccccc4)cs3)c2)cc1
19,< 1,Cc1ccc(S(=O)(=O)Nc2ccc(Cl)c(C(=O)Nc3nc(-c4ccccc4)cs3)c2)cc1
20,19,O=C1Nc2ccc(Cl)cc2/C1=C\c1cc(Cl)c(O)c(Cl)c1
21,> 51,Cc1ccc(-n2ncc3c(NCCCN(C)C)ncnc32)cc1Cl
22,> 53,O=S(=O)(Nc1nccs1)c1ccc(NCc2cccc(O)c2)cc1
23,0.075,COc1ccc(Nc2ncnc3c2cnn3-c2ccc(C)cc2)cc1Cl

row,solubility kinetic [µg/mL],Compound
1,> 55,COc1ccc(-c2nc3sc(CCNC(=O)C(C)(C)C)c(C)n3n2)cc1
2,< 1,C#CCOc1ccc(-c2nnc(Nc3ccc(NC(C)=O)cc3)c3ccccc23)cc1
3,> 49,CC(=O)c1cccc(-c2csc(N3CCC(C(N)=O)CC3)n2)c1
4,< 1,COc1cc2nccc(Oc3ccc(NC(=O)Nc4cc(C)on4)c(Cl)c3)c2cc1OC
5,> 65,O=C(Cc1ccc(Cl)c(Cl)c1)Nc1ccc(S(=O)(=O)Nc2nncs2)cc1
6,< 1,Cc1ccc(Nc2nc(-c3ccncc3)nc3ccccc23)cc1F
7,1.26,Cc1nn(CCc2nc(-c3ccccc3)cs2)c2[nH]c(=O)cc(C(F)(F)F)c12
8,34.8,CN(C)C(=O)NC1CCC(CCN2CCN(c3cccc(Cl)c3Cl)CC2)CC1 (stereo unspecified)
9,4.76,CC(Nc1ccc([S+](=O)([O-])Nc2nccs2)cc1)c1ccccc1 (stereo unspecified)
10,> 64,Cc1ccc(S(=O)(=O)Nc2cnccc2C(=O)Nc2ccc(-n3cncn3)cc2)cc1
11,9.07,Cc1ccc(OCCn2c(CCNC(=O)N3CCCCC3)nc3ccccc32)cc1
12,< 1,FC1(F)CCN(c2nc(-c3ccncc3)nc3ccccc23)CC1
13,11.5,O=C(CCS(=O)(=O)c1nc(-c2cccs2)cc(C(F)(F)F)n1)Nc1ccc(OC(F)(F)F)cc1
14,1.08,CCCCc1ccc(NC(=O)c2ccc3c(c2)N(S(C)(=O)=O)CC3)cc1
15,< 1,CCc1ccc(-n2nnc(-c3nsc(NC(=O)c4ccccc4Cl)n3)c2C)cc1
16,4.11,Cc1ccnc(NC(=S)N2CCN(c3ccc(C(F)(F)F)cc3[N+](=O)[O-])CC2)c1
17,< 1,Cc1noc(C)c1-c1ccc2ncnc(NCc3ccc4[nH]ccc4c3)c2c1
18,< 1,Clc1ccccc1-c1nc(NCc2ccc(-c3cccnc3)cc2)c2ccccc2n1
19,< 1,O=C(c1cccs1)c1nonc1C(=O)c1cccs1
20,12.6,Cc1noc(C)c1-c1ccc2ncnc(NC(C)c3ccccc3)c2c1 (stereo unspecified)
21,> 69,O=C(NCCCNc1nc(Nc2cccc(CN3CCOCC3)c2)ncc1C1CC1)C1CCC1

row,Compound,solubility kinetic [µg/mL]
1,C[C@H]1CCC[C@H](O)CCC/C=C/c2cc(O)cc(O)c2C(=O)O1,17.1
2,C[C@H]1[C@@H](CCC(=O)Nc2ccc(F)cc2)O[C@@H]2O[C@]3(C)CC[C@@H]4[C@H](C)CC[C@@H]1[C@@]24OO3,24
3,Cc1nc(-c2ccco2)cc([C@H]2CN3CC[C@H]2C[C@@H]3CNC(=O)NC2CCCCC2)n1,> 63
4,CCOc1ccc(CCNC(=O)c2cc3ccccc3n2CCN2CCOCC2)cc1OCC,47.5
